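Values below derive from 48-hour exposures of cells grown in 96-well plates, with endpoints linearly interpolated between the two concentrations bracketing the appropriate inhibition level. TGI is the concentration that stops growth completely.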
Assays:
Test in all cases: inhibition of tumour cell growth, NCI panel, 48 h
[1] = test system: HCT-116 colon
[2] = test system: SK-MEL-28 melanoma
[3] = test system: DU-145 prostate
[4] = test system: OVCAR-4 ovarian
[5] = test system: CCRF-CEM leukemia
[6] = test system: HS 578T breast
[7] = test system: TK-10 renal
[8] = test system: SK-MEL-2 melanoma
[9] = test system: HCT-15 colon
[10] = test system: SNB-19 CNS
[11] = test system: RXF 393 renal
[12] = test system: LOX IMVI melanoma
[13] = test system: SNB-75 CNS
[14] = test system: UACC-62 melanoma
[15] = test system: MDA-MB-231 breast
[16] = test system: HOP-62 NSCLC
[17] = test system: A549 NSCLC
[18] = test system: SF-295 CNS
[19] = test system: IGROV1 ovarian
[20] = test system: ACHN renal
[21] = test system: COLO 205 colon
[22] = test system: OVCAR-8 ovarian
[23] = test system: BT-549 breast
[24] = test system: 786-0 renal
[25] = test system: UO-31 renal
[26] = test system: CAKI-1 renal
[27] = test system: SR leukemia
[28] = test system: K-562 leukemia
[29] = test system: NCI-H23 lung
[30] = test system: NCI/ADR-RES ovarian
[31] = test system: HT29 colon
[32] = test system: PC-3 prostate
[33] = test system: UACC-257 melanoma
[34] = test system: A498 renal
[35] = test system: U251 CNS
[36] = test system: OVCAR-3 ovarian
[37] = test system: SN12C renal
[38] = test system: SK-MEL-5 melanoma
[39] = test system: SW-620 colon
[40] = test system: KM12 colon
[41] = test system: MALME-3M melanoma
[42] = test system: M14 melanoma
[43] = test system: SK-OV-3 ovarian
[44] = test system: RPMI-8226 leukemia
[45] = test system: NCI-H226 lung
[46] = test system: NCI-H522 lung
[47] = test system: EKVX NSCLC
[48] = test system: SF-268 CNS
[49] = test system: MDA-MB-435
[50] = test system: OVCAR-5 ovarian
[51] = test system: HCC-2998 colon
[52] = test system: NCI-H460 lung
[53] = test system: HL-60(TB) leukemia
[54] = test system: MCF7 breast
[55] = test system: HOP-92 NSCLC
[56] = test system: MDA-N
[57] = test system: T-47D breast

Measured: TGI

OC(Cc1cccnc1)(c1ccccc1)c1ccccc1
> 100 µM: all assays above

O=P(O)(OP(=O)(O)c1ccccc1)c1ccccc1 (tested in a mixture with another compound)
> 100 µM: all assays above
